Reference: patent publication US9029332B2, “Cross-linked peptides and proteins, methods of making same, and uses thereof” (The Research Foundation for The State University of New York, priority 2010, dated 2015)
Blank lines part the entries; values can stand above or below the compound they belong to. Square brackets hold non-standard residues; d marks the D form. Peptide text beside a SMILES is read from it.

Tests used:
[1] = target: T1, chymotrypsin (Bos taurus, UniProt P00766); test: in vitro; settings: cattle (bovine), pH 8
Description: (§1) Proteolytic stability of the linear and stapled Noxa peptides against trypsin (Type IX-S, 13,000-20,000 unit/mg, Sigma) and chymotrypsin (Type II, 40 unit/mg, Sigma). To a solution of 400 μL of 0.25 mM peptide in NH4HCO3 buffer, pH 8.0, was added 80 μL trypsin (5 μg/mL) or chymotrypsin (25 μg/mL), and the resulting solution was incubated at 37° C. At the indicated times, 40 μL of the solution was transferred to 40 μL trifluoroacetic acid to quench the reaction. The samples were analyzed by reverse-phase HPLC using benzophenone as an injection control.

[2] = target: T2, trypsin (Sus scrofa, UniProt P00761); test: in vitro; settings: pig (porcine), pH 8
Description: as §1

[3] = target: T3, full-length human MDM2 (GST-MDM2) (Homo sapiens, UniProt Q00987); test: ELISA, inhibition of p53-MDM2 interaction; type: binding; settings: relative to comparator linear peptide
T3 construct: GST-MDM2 and GST-MDMX containing full-length human MDM2 and MDMX; made in house; host or cells: Escherichia coli
Text: FIG. 10. ELISA data of the cross-linked PDI analogs. The experiments were repeated three times and the resulting data were plotted with GraphPad Prism 5.0 to derive the average IC50 values along with standard deviations.
ELISA Assay. GST-MDM2 and GST-MDMX containing full-length human MDM2 and MDMX and His6-tagged human p53 were expressed in Escherichia coli and purified by glutathione agarose and Ni^2+-nitrilotriacetic acid beads, respectively, under non-denaturing conditions. Microtiter plates were coated with 2.5 μg/ml His6-p53 in PBS buffer for 16 hours. After washing with PBS containing 0.1% Tween-20 (PBST), the plates were blocked with PBST containing 5% nonfat dry milk (PBSTM) for 30 minutes. Peptides were dissolved in DMSO. GST-MDM2 and MDMX (5 μg/ml) were mixed with peptides in PBSMT containing 10% glycerol and 10 mM dithiolthreitol prior to their additions to the wells at the specified concentrations. The incubation was allowed to proceed for 1 hour at room temperature before the plates were washed with PBST. […] The plates were developed by incubation with TMB peroxidase substrate (KPL, Gaithersburg, Md.) and measured by absorbance at 450 nm. The data was analyzed with the Origin 6.0 software. […]

[4] = Circular dichroism, percent helicity; type: physicochemical; settings: compared to the linear NoxaBH3 peptide, 50 μM in 20% ACN/H2O
Description: FIG. 12. […] The peptides were dissolved in 20% ACN/H2O for a final concentration of 50 μM.
Circular Dichroism Study. […] The spectra were recorded in the wavelength range of 190-250 nm and averaged over 3 scans with a resolution of 0.5 nm, a bandwidth of 1.0 nm and a response time of 4 s. The sensitivity and the speed of the spectrometer were set to 100 mdeg and 50 nm/min, respectively. All peptides were dissolved in 20% acetonitrile/H2O to reach final concentration of 50 μM.

[5] = target: GST-Mcl-1 (Homo sapiens, UniProt Q07820); test: Competitive fluorescence polarization assay; type: binding; settings: Noxa peptides, three repeats ± SD; read-out: FP, IC50
Description: Competitive Florescence Polarization Assay. The binding affinity of the Noxa peptides toward GST-Mcl-1 was determined in a competitive fluorescence polarization assay with the fluorescein-labeled Bak or Bim. Briefly, fluorescein-labeled Bak was incubated with GST-Mcl-1 in a binding buffer (PBS, 0.005% Tween-20, pH7.4) at room temperature in a 96-well microtiter plate. […] The reading was repeated at various time points to ensure that the competition has reached equilibrium.

[6] = target: Mcl-1 (Homo sapiens, UniProt Q07820); test: ELISA of cross-linked Noxa peptides; type: binding
[7] = Water solubility; type: physicochemical
[8] = target: T2, trypsin; test: Trypsin-mediated proteolytic stability assay
Description: as §1

[9] = target: T1, chymotrypsin; test: Chymotrypsin proteolytic stability assay
Description: as §1

[10] = target: Bcl-xL (Homo sapiens, UniProt Q07817); settings: background literature; read-out: IC50 against Bcl-xL; cited from earlier work
[11] = target: T4, Bcl-w (Homo sapiens, UniProt Q92843); settings: background literature; read-out: IC50 against Bcl-w; cited from earlier work
T4 sequence (Q92843 1-193): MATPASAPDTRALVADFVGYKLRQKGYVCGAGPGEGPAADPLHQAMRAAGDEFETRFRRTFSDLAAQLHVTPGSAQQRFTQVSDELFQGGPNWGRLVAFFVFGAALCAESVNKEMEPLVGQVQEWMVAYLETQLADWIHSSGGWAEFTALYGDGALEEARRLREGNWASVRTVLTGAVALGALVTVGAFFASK

[12] = test system: Bfl-1/A1; settings: background literature; read-out: IC50 against Bfl-1/A1; cited from earlier work
[13] = target: Bcl-2 (Homo sapiens, UniProt P10415); settings: background literature; read-out: IC50 against Bcl-2; cited from earlier work
[14] = target: Mcl-1 (Mus musculus, UniProt P97287); settings: background literature; read-out: IC50 against Mcl-1; cited from earlier work
Mcl-1 (Mus musculus, UniProt P97287), sequence (P97287 152-308 limits assumed): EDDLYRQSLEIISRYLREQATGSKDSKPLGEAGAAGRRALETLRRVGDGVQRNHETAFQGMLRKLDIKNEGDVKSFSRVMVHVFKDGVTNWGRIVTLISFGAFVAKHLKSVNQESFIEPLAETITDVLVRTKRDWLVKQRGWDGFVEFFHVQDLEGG

T2 sequence (P00761 9-231): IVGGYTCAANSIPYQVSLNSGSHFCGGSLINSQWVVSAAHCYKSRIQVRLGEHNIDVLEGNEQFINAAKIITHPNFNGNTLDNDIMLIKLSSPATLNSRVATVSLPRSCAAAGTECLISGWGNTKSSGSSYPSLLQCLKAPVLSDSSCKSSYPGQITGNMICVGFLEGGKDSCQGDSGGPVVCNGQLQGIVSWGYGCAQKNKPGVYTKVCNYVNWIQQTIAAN
Bcl-xL, sequence (Q07817 whole entry, species assumed): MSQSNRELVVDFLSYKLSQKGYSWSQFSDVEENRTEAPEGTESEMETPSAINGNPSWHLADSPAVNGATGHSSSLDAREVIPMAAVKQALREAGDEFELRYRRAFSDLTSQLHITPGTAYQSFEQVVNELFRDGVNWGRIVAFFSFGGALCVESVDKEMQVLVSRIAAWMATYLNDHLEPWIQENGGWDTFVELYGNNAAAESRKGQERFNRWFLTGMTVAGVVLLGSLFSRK
Mcl-1 (Homo sapiens, UniProt Q07820), sequence (Q07820 whole entry, species assumed): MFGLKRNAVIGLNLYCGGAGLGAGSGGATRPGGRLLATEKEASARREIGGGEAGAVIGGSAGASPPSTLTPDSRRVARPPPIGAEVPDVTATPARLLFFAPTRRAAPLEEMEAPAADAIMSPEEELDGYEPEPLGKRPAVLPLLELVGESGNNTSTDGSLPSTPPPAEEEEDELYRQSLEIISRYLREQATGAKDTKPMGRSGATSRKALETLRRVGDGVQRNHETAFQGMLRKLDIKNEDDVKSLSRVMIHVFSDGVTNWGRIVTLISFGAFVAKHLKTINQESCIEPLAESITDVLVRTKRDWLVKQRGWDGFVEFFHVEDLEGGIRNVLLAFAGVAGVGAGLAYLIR
GST-Mcl-1, sequence (Q07820 whole entry): as the sequence (Q07820 whole entry, species assumed) above
Bcl-2, sequence (P10415 whole entry, species assumed): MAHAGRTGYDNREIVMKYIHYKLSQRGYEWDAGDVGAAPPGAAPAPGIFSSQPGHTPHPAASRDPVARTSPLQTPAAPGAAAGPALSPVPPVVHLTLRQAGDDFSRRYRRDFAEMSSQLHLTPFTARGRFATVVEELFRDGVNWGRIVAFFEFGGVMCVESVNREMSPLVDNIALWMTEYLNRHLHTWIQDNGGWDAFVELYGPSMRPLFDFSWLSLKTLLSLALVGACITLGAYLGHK
T3 sequence (Q00987 whole entry): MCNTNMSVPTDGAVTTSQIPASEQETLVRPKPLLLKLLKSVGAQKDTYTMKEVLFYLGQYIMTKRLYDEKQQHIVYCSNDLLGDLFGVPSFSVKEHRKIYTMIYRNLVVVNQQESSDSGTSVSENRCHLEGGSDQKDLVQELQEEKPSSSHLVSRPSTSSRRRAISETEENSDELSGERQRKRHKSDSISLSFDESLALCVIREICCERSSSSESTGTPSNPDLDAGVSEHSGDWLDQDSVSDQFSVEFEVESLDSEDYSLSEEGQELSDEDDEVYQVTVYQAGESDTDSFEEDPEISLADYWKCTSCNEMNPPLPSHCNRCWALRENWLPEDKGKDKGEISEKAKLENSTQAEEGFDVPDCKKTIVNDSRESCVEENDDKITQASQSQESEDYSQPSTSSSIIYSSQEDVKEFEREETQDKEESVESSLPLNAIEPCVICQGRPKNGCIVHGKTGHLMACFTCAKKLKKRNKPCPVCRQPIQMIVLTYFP

half-life at 0.208 mM [1]: 3.3 min
half-life at 0.208 mM [2]: 1.8 min
Compound: CC[C@H](C)[C@H](NC(=O)[C@H](CCCNC(=N)N)NC(=O)[C@H](CCCNC(=N)N)NC(=O)[C@H](CC(C)C)NC(=O)[C@H](CCC(N)=O)NC(=O)[C@H](C)NC(=O)[C@H](C)NC(C)=O)C(=O)NCC(=O)N[C@@H](CC(=O)O)C(=O)N[C@@H](CCCCN)C(=O)N[C@H](C(=O)N[C@@H](CC(N)=O)C(=O)N[C@@H](CC(C)C)C(=O)N[C@@H](CCCNC(=N)N)C(=O)N[C@@H](CCC(N)=O)C(=O)N[C@@H](CCCCN)C(=O)N[C@@H](CC(C)C)C(=O)N[C@@H](CC(C)C)C(=O)N[C@@H](CC(N)=O)C(N)=O)C(C)C [NoxaB^75-93-C75A]

increase in MDM2 activity [3]: more than 3 fold
Compound: CC(=O)N[C@@H](CC(C)C)C(=O)N[C@H](C(=O)N[C@@H](Cc1ccccc1)C(=O)N[C@H](CS)C(=O)N[C@@H](Cc1c[nH]cn1)C(=O)N[C@@H](Cc1ccc(O)cc1)C(=O)N[C@@H](Cc1c[nH]c2ccccc12)C(=O)N[C@@H](C)C(=O)N[C@@H](CCC(N)=O)C(=O)N[C@@H](CC(C)C)C(=O)N[C@@H](CS)C(=O)N[C@@H](CO)C(N)=O)[C@@H](C)O [Peptide 3] (Ac-LTF[dC]HYWAQLCS-NH2; C-terminus assumed)

enhancement in percent helicity [4]: roughly 2 fold
IC50 [5]: 0.14 ± 0.043 µM
IC50 [6]: 0.14 µM
water solubility [7]: better water solubility
times more stable against trypsin than parent linear peptide [8]: > 6 times
half-life at 0.208 mM ([8]; pig (porcine), trypsin (Type IX-S, Sigma) in NH4HCO3 buffer, pH 8): 11.5 min
times more stable against chymotrypsin than parent linear peptide [9]: > 16 times
half-life at 0.208 mM ([9]; cattle (bovine), chymotrypsin (Type II, Sigma) in NH4HCO3 buffer, pH 8): 54 min
Compound: CC[C@H](C)[C@@H]1NC(=O)[C@H](CCCNC(=N)N)NC(=O)[C@H](CCCNC(=N)N)NC(=O)[C@H](CC(C)C)NC(=O)[C@H](NC(=O)[C@H](C)NC(=O)[C@H](C)NC(C)=O)CSCc2ccc(cn2)-c2ccc(nc2)CSC[C@@H](C(=O)N[C@H](C(=O)N[C@@H](CC(N)=O)C(=O)N[C@@H](CC(C)C)C(=O)N[C@@H](CCCNC(=N)N)C(=O)N[C@@H](CCC(N)=O)C(=O)N[C@@H](CCCCN)C(=O)N[C@@H](CC(C)C)C(=O)N[C@@H](CC(C)C)C(=O)N[C@@H](CC(N)=O)C(N)=O)C(C)C)NC(=O)[C@H](CC(=O)O)NC(=O)CNC1=O [Peptide 6b]

Compound: NoxaBH3-(18-43): human Noxa BH3 peptide, residues 18-43 (PAELEVECATQLRRFGDKLNFRQKLL; UniProt Q13794 18-43, looked up, fragment)
IC50 [10]: > 100 µM
IC50 [11]: > 100 µM
IC50 [12]: 0.18 µM
IC50 [13]: > 100 µM
IC50 [14]: 0.024 µM
